Experiment [1] concerns gastric adenocarcinoma AGS. The experiment is described as follows: MTT assay, AGS cells. In kind it is cell-based, human. The method, then: (§1) The human gastric adenocarcinoma AGS, cervical cancer HeLa, and acute promyelocytic leukemia HL-60 cells were obtained from the American Type Culture Collection (ATCC, Manassas, VA, USA). Human neonatal fibroblasts were obtained from LGC Standards (Luckenwalde, Germany). The HeLa and AGS lines were cultured in Dulbecco’s modified Eagle’s medium (DMEM) and DMEM/F12 medium, respectively. The HL-60 line was maintained in RPMI-1640 medium. Fibroblasts were cultured in Fibroblast Growth Medium with Supplement Mix. All the media were supplemented with 100 units/mL of penicillin, 100 µg/mL of streptomycin, and 10% (v/v) fetal bovine serum (FBS) (Merck Millipore, Burlington, MA, USA). The cells were incubated at 37 °C and 5% CO2.
(§2) To estimate the cytotoxic effect of the five compounds (4–8), MTT (3-(4,5-dimethylthiazol-2-yl)-2,5-diphenyltetrazolium bromide) assay was used. Oxaliplatin was used as a positive control in this test. All the cell lines were seeded in 96-well plates at a density of 5 × 10^3 cells/well and treated for 24 h with the compounds at concentrations of 0.5–40 µg/mL. Oxaliplatin was tested in the range of 20–400 µg/mL (50–1000 µM). After treatment, the cells were incubated with MTT (0.5 mg/mL; Merck Millipore, Burlington, MA, USA) for 3 h. Then, DMSO was used to dissolve formazan crystals, and the absorbance of the formazan solution was measured with a plate reader (Epoch, BioTek Instruments, Santa Clara, CA, USA). All the results (±standard deviation (SD)) were obtained from six repetitions in at least two independent experiments. The data are expressed as IC50 values (µg/mL).

For experiment [2], the system named is acute promyelocytic leukemia HL-60. The experiment is described as follows: MTT assay, HL-60 cells. The class given is cell-based, human. The method, then: as §1, §2
A general note: Tetrazolium assays rely on reduction of a dye to a coloured formazan, in cell work by metabolically active cells.

Experiment [3] has as its system AGS cells. The experiment is described as follows: Microscopic observation of AGS cells. In kind it is cell-based, human. The following applies: microscopy, 200×; compound 5 at 1, 5, 10 µg/mL; oxaliplatin 20 and 40 µg/mL. The method, then:
These changes were clearly visible when higher concentrations of the compound were used in the study.
Figure 2 The effect of chalcone derivative 5 on AGS cells. The cells were treated with DMSO (0.2%, v/v) (A) and the compound at concentrations of 1 (B), 5 (C), and 10 (D) µg/mL and oxaliplatin at 20 (E) and 40 (F) µg/mL. The images were taken at 200× magnification.

Experiment [4] deals with caspase-9. Briefly: Caspase-Glo 9 activity assay in AGS cells. The following applies: 24 h, relative to DMSO control. The class given is cell-based, human. The method, then:
The AGS cells were seeded in a 96-well plate (5 × 10^3 cells/well) and treated with compound 5 at concentrations of 1, 5, 7, and 10 µg/mL for 24 h; oxaliplatin at the concentration of 20 µg/mL; and DMSO (1%, v/v). The cells were then treated with reagents from Caspase-Glo 8 Assay or Caspase-Glo 9 Assay (Promega, Madison, WI, USA) and measured with the luminometer Glomax Multi + Detection System (Promega, Madison, WI, USA). The experiments were performed in two independent repeats in three repetitions.

Experiment [5] in a line: DPPH radical scavenging assay. The following applies: concentration of 800 µg/mL. The method, then:
The DPPH radical scavenging assay of samples (ligands or complexes) was performed with ascorbic acid as a standard. Different concentrations of chalcone derivatives, dissolved in DMSO, were mixed with the same amount of 0.06 mM DPPH methanolic solution and incubated at room temperature in the dark for 30 min. The absorbance was analyzed at λ = 517 nm using a 96-well microplate reader (Epoch, BioTek System, Winooski, VT, USA). The control was composed of DPPH and DMSO. DPPH inhibition was calculated according to the following Formula (2):DPPH Inhibition (%) = [(Acontrol − Asample)/Acontrol] × 100%(2)

Experiment [6] deals with Bacillus cereus PCM 1948,2019 (ATCC11778). The experiment is described as follows: MIC determination. The class given is cell-based. The settings on record: 37 °C, 48 h. The method, then: (§3) The MIC determinations for Staphylococcus epidermidis ATCC14990, Staphylococcus aureus ATCC6538, Enterococcus faecalis ATCC51299, Klebsiella pneumoniae ATCC13883, Escherichia coli ATCC8739, Salmonella enterica ATCC13076, Helicobacter pylori ATCC43504, Campylobacter jejuni ZMF, Campylobacter coli ZMF, Bacillus cereus PCM 1948,2019 (ATCC11778), and Listeria monocytogenes PCM2191 were performed based on the methodology described by Krauze-Baranowska et al.. The procedure for H. pylori was used in the experiments with Campylobacter strains, and the procedure for B. subtilis was used in the experiments with L. monocytogenes and B. cereus. The tested samples were dissolved in DMSO and diluted with water (concentration of approximately 500 μg/mL). The solutions were diluted geometrically by transferring the mixture/dilution (100 μL) from the first to the twelfth well of the microtiter plate. The final concentrations of samples used for antimicrobial effects ranged from 500 to 0.006 µg/mL. Ampicillin was used as a reference compound in the concentration range of 128 to 0.0625 µg/mL. The tests were incubated at 37 °C for 48 h. The diluent concentration had no effect on the activity of the tested compounds. All experiments were performed in triplicate.

Experiment [7] has as its system Campylobacter coli ZMF. The experiment is described as follows: MIC determination. In kind it is cell-based. The settings on record: 37 °C, 48 h. The method, then:
as §3

For experiment [8], the system named is Campylobacter jejuni ZMF. Briefly: MIC determination. The following applies: 37 °C, 48 h. In kind it is cell-based. The method, then:
as §3

Experiment [9] concerns Enterococcus faecalis ATCC51299. The experiment is described as follows: MIC determination. The class given is cell-based. The settings on record: 37 °C, 48 h. The method, then: as §3
Experiment [10] deals with Escherichia coli ATCC8739. Briefly: MIC determination. The class given is cell-based. The settings on record: 37 °C, 48 h. The method, then: as §3
The test system of experiment [11] is Helicobacter pylori ATCC43504. Briefly: MIC determination. The following applies: 37 °C, 48 h. In kind it is cell-based. The method, then:
as §3

For experiment [12], the system named is Klebsiella pneumoniae ATCC13883. Briefly: MIC determination. The following applies: 37 °C, 48 h. In kind it is cell-based. The method, then:
as §3

In experiment [13] the test system is Listeria monocytogenes PCM2191. The experiment is described as follows: MIC determination. The class given is cell-based. The settings on record: 37 °C, 48 h. The method, then:
as §3

Experiment [14] has as its system Salmonella enterica ATCC13076. The experiment is described as follows: MIC determination. The class given is cell-based. The following applies: 37 °C, 48 h. The method, then:
as §3

Experiment [15] relates to Staphylococcus aureus ATCC6538. Briefly: MIC determination. In kind it is cell-based. The settings on record: 37 °C, 48 h. The method, then:
as §3

Experiment [16] concerns Staphylococcus epidermidis ATCC14990. Briefly: MIC determination. In kind it is cell-based. The following applies: 37 °C, 48 h. The method, then:
as §3

Setting [17] is: SI = IC50 noncancer cells/IC50 cancer cells, in relation to human neonatal fibroblasts.

In brackets after ≈: the same amount, converted by molar mass.

What is called IC50 is the midpoint of a concentration-inhibition curve. A higher IC50 goes with a need for much substance. As usually defined, the MIC is the lowest concentration found to suppress growth. Lower therefore signals greater potency.

For `Cc1cc(S(=O)(=O)Nc2ccc(C(=O)/C=C/c3ccc(Br)cc3)cc2)c(Cl)cc1Cl` [Compound 5, (E)-N-{4-[3-(4-Bromophenyl)acryloyl]phenyl}-2,4-Dichloro-5-Methylbenzenesulfonamide], the IC50 in experiment [1] (Homo sapiens, AGS, 24 h, MTT, 24 h treatment) is below 1 µg/mL; in experiment [2] (Homo sapiens, HL-60, 24 h, MTT, 24 h treatment) it was below 1.57 µg/mL. The “selectivity index AGS” value in experiment [1] (setting [17]) worked out at 28.75. For the same compound, the “IC50 HL-60” value in experiment [2] (MTT, 24 h treatment) is on record as 0.93 ± 0.09 µg/mL (≈ 1.77 µM). Moreover, the “selectivity index HL-60” value in experiment [2] (setting [17]) is 27.52. In [3], the “morphological changes of AGS cells” value is “cell shrinkage, membrane blebbing, and cell detachment”. Moreover, the caspase-9 relative activity is given as 0.85 ± 0.03 in experiment [4] (1 µg/mL), 4.54 ± 0.20 in experiment [4] (5 µg/mL), 4.50 ± 0.14 in experiment [4] (7 µg/mL) and 3.81 ± 0.32 in experiment [4] (10 µg/mL). Moreover, the “% of DPPH radical inhibition” value in experiment [5] turned out to be 30.18 ± 0.23%. Moreover, the MIC in [6], in experiment [7], in [8], in experiment [9], in experiment [10] and in experiment [11] was above 500 µg/mL each time. Besides, the MIC in experiment [12], in [13], in [14], in experiment [15] and in [16] was above 500 µg/mL throughout.

The values are drawn from paper PMC10778824, “New Chalcone Derivatives Containing 2,4-Dichlorobenzenesulfonamide Moiety with Anticancer and Antioxidant Properties” (International Journal of Molecular Sciences, 2023).
